# Laboratory results published in US7115724B2, “Murine genomic polynucleotide sequence encoding a G-protein coupled receptor and methods of use therefor” (priority 2001, dated 2006).
# Read-outs that look alike come from different tables or passages of the source.
# Experiments:
# human P2Y12 receptor [1] = target: T1, human P2Y12 receptor (Homo sapiens, UniProt Q9H244); details: Zhang et al., 2001, cited from earlier work; for rank order of potency, human P2T (P2Y12) receptor in adenylyl cyclase inhibition assays: reported values
# mouse P2Y12 = target: T2, mouse P2Y12 (Mus musculus, UniProt Q9CPV9); assay: Agonist-induced release of intracellular calcium (FLIPR) in NIH3T3 cells expressing mouse P2Y12 and chimeric Gαq/i3; assay type: cell-based; details: for rank order of potency of agonist stimulation of the mouse P2Y12 receptor in FLIPR: NIH3T3 Gαq/i3 cells (FIG. 4)
# T2 construct: expressed in transfected cells; host or cells: NIH3T3 cells stably transfected with pCDNA-Gαq/i3 and pCDNA3.1-mP2Y12
# Experimental: Mammalian cell expression and measurement of intracellular calcium. NIH3T3 cells were stably transfected with pCDNA-Gαq/i3 by electroporation and cultured in the presence of 800 μg/ml neomycin. The NIH3T3 Gαq/i3 line was subsequently stably transfected with pCDNA3.1-mP2Y12 by electroporation and cultured in the presence of 800 μg/ml neomycin and 400 μg/ml hygromycin. Cells were plated without selection and grown overnight at 37° C. The cells were washed with Hank's balanced salt solution without phenol red plus 20 mM HEPES, 2.5 mM probenecid, pH 7.4 and loaded with wash solution plus 5 μM Fluo-4, 0.04% pluronic acid and 1% fetal bovine serum for 1 hour at 37° C. After removing the dye solution and washed with wash buffer, agonists were added and analyzed using the FLIPR (PE Biosystems) to measure accumulation of intracellular calcium in response to compound treatments.
# In published reports, Xenopus oocytes injected with the human P2Y12 receptor cRNA and coupled to stimulation of coinjected Kir3.1/Kir3.2 inwardly rectifying K+ currents, the EC50 was 300 nM (Hollopeter, 2001). […] The rank orders of potency of agonist stimulation of the mouse P2Y12 receptor in FLIPR (2MeSADP>ADP=ADPβS>ATPγS) agree well with reported values for the human P2Y12 receptor measured in FLIPR (2MeSADP=2MeSATP>ADP=ADPβS>2CIATP>ATPγS) and in adenylyl cyclase inhibition assays (2MeSATP>2MeSADP>ADP>ATPγS>ADPβS>2CIATP) (Zhang, 2001).
# mouse P2T receptor = target: T3, mouse P2T receptor (Mus musculus, UniProt Q9CPV9); assay: Yeast cell-based assay of mouse P2T receptor agonist activation (β-galactosidase reporter); details: for rank order of potency of agonist stimulation of the mouse P2T receptor: yeast assay (FIG. 2)
# T3 construct: Oligonucleotides corresponding to the 5′ and 3′ ends of the predicted protein coding region were used to amplify a fragment; expressed in transfected cells; host or cells: Saccharomyces cerevisiae MPY578 variant expressing a Gpa1-Gαt chimera, with pMP344 (p426GPD backbone) and the FUS1-LacZ reporter pMP283
# Source text: In order to facilitate coupling of the P2T receptor to G protein, MPY578 variant cells express chimeric G alpha proteins coupled to the mating signal transduction pathway. The chimeric constructs are expressed from the GPA1 locus and are composed of Gpa1 sequences in which the 5 C-terminal amino acids have been replaced with those of all the mammalian Gα proteins. A multicopy FUS1-LacZ reporter gene plasmid, pMP283, was introduced into P2T receptor-containing cells and selected on media lacking trp and ura. The resulting yeast strains were used for further analysis.
# MPY578 cells that express Gpa1-Gαt chimeric G alpha protein and containing pMP344 and pMP283 were diluted in assay medium (SCD-ura-trp, pH 6.8, 25 mM PIPES, 1 mM 3-aminotriazole) dispensed (5×10^6/ml, 200 μl/well) to the wells of 96-well microtiter dishes containing purinergic ligands. The plates were incubated with shaking (600 rpm) at 30° C. for 3 hours. Samples (25 μl) were transferred to Wallac B & W isoplates for β-galactosidase assay. An equal volume of GAL-SCREEN lysis and chemiluminescent β-galactosidase assay mixture was added. The plates were incubated for 30 min at 30° C. and light emission measured using a Wallac Victor II. Assays were conducted in quadruplicate and results were plotted using GraphPad Prizm.
# human P2Y12 receptor [2] = target: T1, human P2Y12 receptor; set-up: host or cells: NIH3T3 cells with a chimeric Gq/i3 construct (FLIPR); details: cited from earlier work; for rank order of potency, human P2T (P2Y12) receptor measured in FLIPR: reported values, Zhang et al., 2001
# human P2Y12 receptor [3] = target: T1, human P2Y12 receptor; details: Xenopus oocytes injected with P2T (human P2Y12) receptor cRNA; Hollopeter et al., 2001; read-out: EC50, stimulation of Kir3.1/Kir3.2 inwardly rectifying K+ currents; cited from earlier work
# T2 sequence (Q9CPV9 whole entry): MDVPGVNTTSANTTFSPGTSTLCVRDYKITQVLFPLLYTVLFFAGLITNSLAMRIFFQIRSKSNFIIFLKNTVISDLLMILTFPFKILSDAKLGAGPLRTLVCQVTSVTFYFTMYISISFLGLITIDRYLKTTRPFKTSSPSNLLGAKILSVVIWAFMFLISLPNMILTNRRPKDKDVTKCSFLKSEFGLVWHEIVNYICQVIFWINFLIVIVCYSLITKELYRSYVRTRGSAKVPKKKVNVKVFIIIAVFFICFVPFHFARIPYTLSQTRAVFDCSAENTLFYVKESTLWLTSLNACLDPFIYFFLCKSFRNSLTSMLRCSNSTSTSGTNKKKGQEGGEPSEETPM
# T3 sequence (Q9CPV9 whole entry, the tested form may be a part): as the sequence (Q9CPV9 whole entry) above
# T1 sequence (Q9H244 whole entry): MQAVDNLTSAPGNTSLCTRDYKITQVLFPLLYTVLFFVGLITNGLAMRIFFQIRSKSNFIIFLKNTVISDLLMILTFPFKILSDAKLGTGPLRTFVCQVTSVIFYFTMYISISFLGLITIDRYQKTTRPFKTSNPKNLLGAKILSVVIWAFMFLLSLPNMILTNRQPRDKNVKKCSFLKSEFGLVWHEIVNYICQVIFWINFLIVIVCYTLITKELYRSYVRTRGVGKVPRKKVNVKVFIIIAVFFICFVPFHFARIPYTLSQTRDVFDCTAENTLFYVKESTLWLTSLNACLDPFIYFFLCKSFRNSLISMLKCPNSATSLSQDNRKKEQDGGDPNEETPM
rank order of potency of agonist stimulation of the mouse P2Y12 receptor in FLIPR (mouse P2Y12),rank order of potency of agonist stimulation of the mouse P2T receptor (mouse P2T receptor),"EC50 (mouse P2Y12; FLIPR, NIH3T3 Gαq/i3 cells, read-out: EC50 for ADP stimulation of the mouse P2Y12 dependent release of intracellular calcium)","EC50 (mouse P2T receptor; MPY578 yeast cells, β-galactosidase reporter, read-out: EC50 for ADP stimulation of the mouse P2T assayed in yeast)",Compound,"rank order of potency, human P2T (P2Y12) receptor in adenylyl cyclase inhibition assays (human P2Y12 receptor [1])","rank order of potency, human P2T (P2Y12) receptor measured in FLIPR (human P2Y12 receptor [2])",EC50 (human P2Y12 receptor [3]),"EC50 (human P2Y12 receptor [1]; read-out: EC50, ADP dependent inhibition of cAMP accumulation)","EC50 (human P2Y12 receptor [2]; NIH3T3 cells, receptor with chimeric Gq construct, literature value, read-out: EC50 measured by FLIPR)"
2MeSADP>ADP=ADPβS>ATPγS,2MeSADP>2MeSATP>ADP=ADPβS>ATPγS>2CIATP,–,–,CSc1nc(N)c2ncn([C@@H]3O[C@H](COP(=O)(O)OP(=O)(O)O)[C@@H](O)[C@H]3O)c2n1 [2MeSADP],2MeSATP>2MeSADP>ADP>ATPγS>ADPβS>2CIATP,2MeSADP=2MeSATP>ADP =ADPβS>2CIATP>ATPγS,–,–,–
2MeSADP>ADP=ADPβS>ATPγS,2MeSADP>2MeSATP>ADP=ADPβS>ATPγS>2CIATP,27 nM,256 nM,Nc1ncnc2c1ncn2[C@@H]1O[C@H](COP(=O)(O)OP(=O)(O)O)[C@@H](O)[C@H]1O [ADP],2MeSATP>2MeSADP>ADP>ATPγS>ADPβS>2CIATP,2MeSADP=2MeSATP>ADP =ADPβS>2CIATP>ATPγS,300 nM,61 nM,74 nM
2MeSADP>ADP=ADPβS>ATPγS,2MeSADP>2MeSATP>ADP=ADPβS>ATPγS>2CIATP,–,–,Nc1ncnc2c1ncn2[C@@H]1O[C@H](COP(=O)(O)OP(=O)(O)OP(O)(O)=S)[C@@H](O)[C@H]1O [ATPγS],2MeSATP>2MeSADP>ADP>ATPγS>ADPβS>2CIATP,2MeSADP=2MeSATP>ADP =ADPβS>2CIATP>ATPγS,–,–,–

# More lines, now with the values behind:
Compound,rank order of potency of agonist stimulation of the mouse P2Y12 receptor in FLIPR (mouse P2Y12),rank order of potency of agonist stimulation of the mouse P2T receptor (mouse P2T receptor),"EC50 (mouse P2Y12; FLIPR, NIH3T3 Gαq/i3 cells, read-out: EC50 for ADP stimulation of the mouse P2Y12 dependent release of intracellular calcium)","EC50 (mouse P2T receptor; MPY578 yeast cells, β-galactosidase reporter, read-out: EC50 for ADP stimulation of the mouse P2T assayed in yeast)","rank order of potency, human P2T (P2Y12) receptor in adenylyl cyclase inhibition assays (human P2Y12 receptor [1])","rank order of potency, human P2T (P2Y12) receptor measured in FLIPR (human P2Y12 receptor [2])",EC50 (human P2Y12 receptor [3]),"EC50 (human P2Y12 receptor [1]; read-out: EC50, ADP dependent inhibition of cAMP accumulation)","EC50 (human P2Y12 receptor [2]; NIH3T3 cells, receptor with chimeric Gq construct, literature value, read-out: EC50 measured by FLIPR)"
Nc1ncnc2c1ncn2[C@@H]1O[C@H](COP(=O)(O)OP(O)(O)=S)[C@@H](O)[C@H]1O [ADPβS],2MeSADP>ADP=ADPβS>ATPγS,2MeSADP>2MeSATP>ADP=ADPβS>ATPγS>2CIATP,–,–,2MeSATP>2MeSADP>ADP>ATPγS>ADPβS>2CIATP,2MeSADP=2MeSATP>ADP =ADPβS>2CIATP>ATPγS,–,–,–
Nc1nc(Cl)nc2c1ncn2[C@@H]1O[C@H](COP(=O)(O)OP(=O)(O)OP(=O)(O)O)[C@@H](O)[C@H]1O [2CIATP],–,2MeSADP>2MeSATP>ADP=ADPβS>ATPγS>2CIATP,–,–,2MeSATP>2MeSADP>ADP>ATPγS>ADPβS>2CIATP,2MeSADP=2MeSATP>ADP =ADPβS>2CIATP>ATPγS,–,–,–
CSc1nc(N)c2ncn([C@@H]3O[C@H](COP(=O)(O)OP(=O)(O)OP(=O)(O)O)[C@@H](O)[C@H]3O)c2n1 [2MeSATP],–,2MeSADP>2MeSATP>ADP=ADPβS>ATPγS>2CIATP,–,–,2MeSATP>2MeSADP>ADP>ATPγS>ADPβS>2CIATP,2MeSADP=2MeSATP>ADP =ADPβS>2CIATP>ATPγS,–,–,–
